Results on twelve compounds are retold here after US11999716B2, “WDR5 inhibitors and modulators” (priority 2018, dated 2024).

One experiment deals with WDR5 (Homo sapiens, UniProt P61964). In words: biochemical. It is filed as binding. The note with it: Ki for Inhibition of WDR5 by TR-FRET assay.
In turn, `CCn1cc(-c2cc(Cn3ccsc3=N)cc3c2CCN(Cc2cc(C)nn2C)C3=O)c(C(F)(F)F)n1` [Example 106, 2-((1,3-Dimethyl-1H-pyrazol-5-yl)methyl)-5-(1-ethyl-3-(trifluoromethyl)-1H-pyrazol-4-yl)-7-((2-iminothiazol-3(2H)-yl)methyl)-3,4-dihydroisoquinolin-1(2H)-one] yielded a Ki of under 0.05 nM.

Still in this experiment, the particulars now being: […]; 10mer-Thr-FAM probe 150 nM; Tb-anti-HIS 1 nM; 60 min, room temperature; read-out: Ki for Inhibition of WDR5 by TR-FRET assay.
`COc1cc(CN2CCc3c(cc(Cn4ccn(C)c4=N)cc3-c3ccc(F)cc3C)C2=O)cc(OC)c1` [Example 29, 2-(3,5-Dimethoxybenzyl)-5-(4-fluoro-2-methylphenyl)-7-((2-imino-3-methyl-2,3-dihydro-1H-imidazol-1-yl)methyl)-3,4-dihydroisoquinolin-1(2H)-one]: the Ki was under 0.05 nM. For `COc1cc(CN2CCc3c(cc(CN4CCCC4=N)cc3-c3cccnc3C(F)(F)F)C2=O)cc(OC)c1` [Example 107, 2-(3,5-Dimethoxybenzyl)-7-((2-iminopyrrolidin-1-yl)methyl)-5-(2-(trifluoromethyl)pyridin-3-yl)-3,4-dihydroisoquinolin-1(2H)-one], the inhibitory constant (Ki) was 0.11 nM.

The next experiment concerns MV4:11 human cancer cell lines. In words: Cellular viability / anti-proliferative activity, CellTiter-Glo, 5 day protocol. It is filed as cell-based. The note with it: Homo sapiens, MV4-11, 120 h, MV4:11 cells; 5 day incubation; CellTiter-Glo; mean of minimum two replicates; read-out: GI50 on cellular proliferation of MV4:11 human cancer cell lines. In short, it runs like this: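 Compounds were tested over 22 two-fold dilutions starting at 30 μM in 0.3% DMSO, with 200 cells per well (7200 cells/mL). Viability was measured by CellTiter-Glo luminescence at day 5.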
Turning to `COc1ccnc([C@H](C)N2CCc3c(cc(Cn4ccnc4C)cc3-c3cccnc3C(F)(F)F)C2=O)c1` [Example 192, (S)-2-(1-(4-Methoxypyridin-2-yl)ethyl)-7-((2-methyl-1H-imidazol-1-yl)methyl)-5-(2-(trifluoromethyl)pyridin-3-yl)-3,4-dihydroisoquinolin-1(2H)-one], the GI50 came out at 77 nM. The same measure, in the same setting: the same measure for `CCn1cc(-c2cc(Cn3ccoc3=N)cc3c2CCN(Cc2cc(OC)ccn2)C3=O)cn1` [Example 87, 5-(1-Ethyl-1H-pyrazol-4-yl)-7-((2-iminooxazol-3(2H)-yl)methyl)-2-((4-methoxypyridin-2-yl)methyl)-3,4-dihydroisoquinolin-1(2H)-one]: 837 nM. As for `CCn1cc(-c2cc(Cn3ccn(C)c3=N)cc3c2CCN(Cc2cc(OC)ccn2)C3=O)c(C)n1` [Example 63, 5-(1-Ethyl-3-methyl-1H-pyrazol-4-yl)-7-((2-imino-3-methyl-2,3-dihydro-1H-imidazol-1-yl)methyl)-2-((4-methoxypyridin-2-yl)methyl)-3,4-dihydroisoquinolin-1(2H)-one], the GI50 was 274 nM. Same read-out and setting: the same measure for `Cc1cc([C@H](C)N2CCc3c(OCC4CC4)cc(Cn4ccnc4C4CC4)cc3C2=O)ccc1F` [Example 23, (S)-7-((2-Cyclopropyl-1H-imidazol-1-yl)methyl)-5-(cyclopropylmethoxy)-2-(1-(4-fluoro-3-methylphenyl)ethyl)-3,4-dihydroisoquinolin-1(2H)-one]: over 938 nM; for `CCn1cc(CN2CCc3c(cc(Cn4ccnc4C)cc3-c3cn(C)nc3C(F)(F)F)C2=O)c2ccccc21` [Example 187, 2-((1-Ethyl-1H-indol-3-yl)methyl)-7-((2-methyl-1H-imidazol-1-yl)methyl)-5-(1-methyl-3-(trifluoromethyl)-1H-pyrazol-4-yl)-3,4-dihydroisoquinolin-1(2H)-one]: 591 nM. Regarding `COc1cc(CN2CCc3c(cc(Cn4cnn(C)c4=N)cc3-c3ccc(C)nc3C)C2=O)cc(OC)c1` [Example 127, 2-(3,5-Dimethoxybenzyl)-5-(2,6-dimethylpyridin-3-yl)-7-((5-imino-1-methyl-1,5-dihydro-4H-1,2,4-triazol-4-yl)methyl)-3,4-dihydroisoquinolin-1(2H)-one], the GI50 was found to be 345 nM.

Regarding `Cc1cc(CN2CCc3c(cc(Cn4ccnc4C)cc3-c3cn(C)nc3C(F)(F)F)C2=O)ccn1` [Example 208, 7-((2-Methyl-1H-imidazol-1-yl)methyl)-5-(1-methyl-3-(trifluoromethyl)-1H-pyrazol-4-yl)-2-((2-methylpyridin-4-yl)methyl)-3,4-dihydroisoquinolin-1(2H)-one], the GI50 was 251 nM.

`COc1cc(CN2CCc3cc(F)c(CNC4=NCCN4)cc3C2=O)cc(OC)c1` [Example 133, 7-(((4,5-Dihydro-1H-imidazol-2-yl)amino)methyl)-2-(3,5-dimethoxybenzyl)-6-fluoro-3,4-dihydroisoquinolin-1(2H)-one]: the GI50 stood at 173 nM. On to `Cc1cc([C@H](C2CC2)N2CCc3c(cc(Cn4ccn(C)c4=N)cc3-c3ccc(F)cc3C)C2=O)ccc1F` [Example 32, (S)-2-(Cyclopropyl(4-fluoro-3-methylphenyl)methyl)-5-(4-fluoro-2-methylphenyl)-7-((2-imino-3-methyl-2,3-dihydro-1H-imidazol-1-yl)methyl)-3,4-dihydroisoquinolin-1(2H)-one], for which the GI50 is 64 nM.

The same experiment, now with this note: Homo sapiens, MV4-11, 120 h, read-out: GI50 on cellular proliferation of MV4:11 human cancer cell lines.
In the case of `COc1cc(CN2CCc3c(cc(Cn4ccn(C)c4=N)cc3-c3ccc(F)cc3C)C2=O)cc(OC)c1` [Example 29, 2-(3,5-Dimethoxybenzyl)-5-(4-fluoro-2-methylphenyl)-7-((2-imino-3-methyl-2,3-dihydro-1H-imidazol-1-yl)methyl)-3,4-dihydroisoquinolin-1(2H)-one], the GI50 turned out to be 63 nM.

Regarding `CCn1cc(-c2cc(Cn3ccsc3=N)cc3c2CCN(Cc2cc(C)nn2C)C3=O)c(C(F)(F)F)n1` [Example 106, 2-((1,3-Dimethyl-1H-pyrazol-5-yl)methyl)-5-(1-ethyl-3-(trifluoromethyl)-1H-pyrazol-4-yl)-7-((2-iminothiazol-3(2H)-yl)methyl)-3,4-dihydroisoquinolin-1(2H)-one], the GI50 came out at 182 nM.
